The record followed here is ChEMBL document CHEMBL3045237, “Synthesis, DNA binding, hemolytic, and anti-cancer assays of curcumin I-based ligands and their ruthenium(III) complexes” (Med Chem Res, 2013).

The test system of data set [1] is MDA-MB-231. The data set is described as follows: Growth inhibition of Homo sapiens (human) MDA-MB-231 cells at 0.0005 mg/ml after 24 hr by MTS assay. In kind it is functional. As to conditions: MDA-MB-231, 24 h, read-out: GI.
For data set [2], the system named is HeLa. The data set is described as follows: Growth inhibition of Homo sapiens (human) HeLa cells at 0.0005 mg/ml after 24 hr by MTS assay. The settings on record: read-out: GI. The format is functional.
Data set [3] concerns HepG2. The data set is described as follows: Growth inhibition of Homo sapiens (human) HepG2 cells at 0.5 mg/ml after 24 hr by MTS assay. As to conditions: HepG2, 24 h, read-out: GI. The format is functional.
Data set [4] concerns HeLa. The data set is described as follows: Growth inhibition of Homo sapiens (human) HeLa cells at 0.5 mg/ml after 24 hr by MTS assay. In kind it is functional. The settings on record: read-out: GI.
Data set [5] deals with HeLa. The data set is described as follows: Growth inhibition of Homo sapiens (human) HeLa cells at 0.05 mg/ml after 24 hr by MTS assay. In kind it is functional. As to conditions: read-out: GI.
Data set [6] concerns HeLa. The data set is described as follows: Growth inhibition of Homo sapiens (human) HeLa cells at 0.005 mg/ml after 24 hr by MTS assay. In kind it is functional. The settings on record: read-out: GI.
For data set [7], the system named is MDA-MB-231. The data set is described as follows: Growth inhibition of Homo sapiens (human) MDA-MB-231 cells at 0.05 mg/ml after 24 hr by MTS assay. In kind it is functional. The settings on record: MDA-MB-231, 24 h, read-out: GI.
The subject of data set [8] is HepG2. The data set is described as follows: Growth inhibition of Homo sapiens (human) HepG2 cells at 0.005 mg/ml after 24 hr by MTS assay. As to conditions: HepG2, 24 h, read-out: GI. The format is functional.
Data set [9] in a line: Hemolytic activity against Homo sapiens (human) RBC at 5 ug/ml after 1 hr by spectrophotometric analysis relative to control. As to conditions: red blood cells (RBC), read-out: Activity. In kind it is ADME, cell-based, Erythrocyte.
The test system of data set [10] is HeLa. The data set is described as follows: Cytotoxicity against Homo sapiens (human) HeLa cells after 24 hr by MTS assay. In kind it is functional, cell-based.
Data set [11] is described as follows: Hemolytic activity against Homo sapiens (human) RBC at 10 ug/ml after 1 hr by spectrophotometric analysis relative to control. In kind it is ADME, cell-based, Erythrocyte. As to conditions: red blood cells (RBC), read-out: Activity.
Data set [12] has as its system MDA-MB-231. The data set is described as follows: Growth inhibition of Homo sapiens (human) MDA-MB-231 cells at 0.005 mg/ml after 24 hr by MTS assay. In kind it is functional. As to conditions: MDA-MB-231, 24 h, read-out: GI.
A short description of data set [13]: Hemolytic activity against Homo sapiens (human) RBC at 20 ug/ml after 1 hr by spectrophotometric analysis relative to control. As to conditions: red blood cells (RBC), read-out: Activity. The format is ADME, cell-based, Erythrocyte.
The nature of data set [14]: Hemolytic activity against Homo sapiens (human) RBC at 50 ug/ml after 1 hr by spectrophotometric analysis relative to control. The format is cell-based, Erythrocyte. The settings on record: red blood cells (RBC), read-out: Activity.
Data set [15] can be described thus: Hemolytic activity against Homo sapiens (human) RBC at 100 ug/ml after 1 hr by spectrophotometric analysis relative to control. The format is ADME, cell-based, Erythrocyte. As to conditions: red blood cells (RBC), read-out: Activity.
In another data set the test system is HT-29. The data set is described as follows: Growth inhibition of Homo sapiens (human) HT-29 cells at 0.5 mg/ml after 24 hr by MTS assay. As to conditions: HT-29, 24 h, read-out: GI. The format is functional.
Data set [16] relates to MDA-MB-231. The data set is described as follows: Growth inhibition of Homo sapiens (human) MDA-MB-231 cells at 0.5 mg/ml after 24 hr by MTS assay. In kind it is functional. The settings on record: MDA-MB-231, 24 h, read-out: GI.

Turning to `COc1cc(/C=C/C(=N\NC(N)=O)C(=Cc2ccc(O)cc2)C(/C=C/c2ccc(O)c(OC)c2)=N/NC(N)=O)ccc1O`, the inhibition of growth at 0.5 µg/mL in the data set with MDA-MB-231 [1] was found to be 21.7%; with HeLa [2], 30.8%. The inhibition of growth at 500 µg/mL in the data set with HepG2 [3] was 0.74%; with HeLa [4] it was 13.8%. The inhibition of growth at 50 µg/mL worked out at 35% in the data set with HeLa [5] and 7.64% in the data set on MDA-MB-231 [7]. The inhibition of growth at 5 µg/mL with HeLa [6] was 33.5%; in the data set on HepG2 [8] it was 0.51%; with MDA-MB-231 [12], 12.9%. The hemolysis at 1 h, 5 ug/ml in data set [9] came out at 8%. The same compound registered an IC50 with HeLa [10] of 20.4 nM. Also, the hemolysis at 1 h, 10 ug/ml in [11] was 10%. Also, the hemolysis at 1 h, 20 ug/ml in [13] turned out to be 12%. Also, the hemolysis at 1 h, 50 ug/ml in [14] amounted to 18%. The hemolysis at 1 h, 100 ug/ml in [15] worked out at 21%.

`COc1cc(/C=C/C(=N\NC(N)=O)C(=Cc2cc(OC)c(O)c(OC)c2)C(/C=C/c2ccc(O)c(OC)c2)=N/NC(N)=O)ccc1O`: the inhibition of growth at 0.5 µg/mL in the data set with MDA-MB-231 [1] turned out to be 8.79%; with HeLa [2], 40.1%. The inhibition of growth at 500 µg/mL was found to be 46.5% in the data set with HT-29, 48.1% in the data set on HepG2 [3], 53.1% with HeLa [4] and 33.6% in the data set with MDA-MB-231 [16]. In addition, the inhibition of growth at 50 µg/mL in the data set on HeLa [5] worked out at 28.1%. For the same compound, the inhibition of growth at 5 µg/mL in the data set on HeLa [6] turned out to be 15.8%. For the same compound, in [9], the hemolysis at 1 h, 5 ug/ml worked out at 2%. Besides, the hemolysis at 1 h, 10 ug/ml in data set [11] came to 4%. For the same compound, the hemolysis at 1 h, 20 ug/ml in data set [13] was determined as 3.9%. Moreover, the hemolysis at 1 h, 50 ug/ml in [14] amounted to 9%. Further, the hemolysis at 1 h, 100 ug/ml in data set [15] was found to be 15%.

Turning to `N#Cc1ccc(C(c2ccc(C#N)cc2)n2cncn2)cc1` [LETROZOLE], the hemolysis at 1 h, 5 ug/ml in data set [9] is 22%. Moreover, the hemolysis at 1 h, 10 ug/ml in [11] came to 32%. The hemolysis at 1 h, 20 ug/ml in data set [13] was found to be 60%. Moreover, the hemolysis at 1 h, 50 ug/ml in data set [14] worked out at 80%. Also, in data set [15], the hemolysis at 1 h, 100 ug/ml stood at 98%.
